According to article PMC11018795, “The regulatory relationship between NAMPT and PD-L1 in cancer and identification of a dual-targeting inhibitor” (EMBO Molecular Medicine, 2024):
Several values for one entry are separate records, joined by “and”; a condition that tells them apart may be missing. Equal entries are not always repeated.

Tests used:
[1] = biological target: T1, PD-1/PD-L1 interaction (Homo sapiens, UniProt Q9NZQ7); assay: In vitro PD-1/PD-L1-binding assay (Cisbio kit)
T1 construct: purchased Cisbio 64ICP01PEG
Experimental: The biochemical activity of the final compounds was evaluated using a PD-1/PD-L1 binding assay kit (Cisbio, cat. No. 64ICP01PEG). Experiments were performed according to the manufacturer’s instructions.

[2] = system: NAD+ content of LLC OE NAMPT/PD-L1 tumor tissue; assay: NAD+ in tumor tissue, LLC OE NAMPT/PD-L1 mouse model; type: in vivo; conditions: 20 mg/kg
[3] = system: A549 cells; assay: MTT assay 48 h, A549; type: cell-based, human
Experimental: (§1) Cells (5 × 10^3/well) were seeded into a 96-well plate and cultured at 37 °C in a 5% CO2 incubator. […] At the final time point, 10 μl MTT solution (5 mg/ml, Sigma, Burlington, MA, USA) was added to each well and incubated for an additional 4 h at 37 °C in a 5% CO2 incubator. Then,100 μl of DMSO was added to each well and mixed thoroughly. Optical density was measured at 492 nm using a microplate reader (Molecular Devices, San Jose, CA, USA).

[4] = system: A2780 cells; assay: MTT assay 48 h, A2780; type: cell-based, human
Experimental: as §1

[5] = system: Hep-3B cells; assay: MTT assay 48 h, Hep-3B; type: cell-based, human
Experimental: as §1

[6] = system: MDA-MB-231 cells; assay: MTT assay 48 h, MDA-MB-231; type: cell-based, human
Experimental: as §1

[7] = system: LLC OE NAMPT cells; assay: Cell viability 72 h, LLC OE NAMPT (Fig 4C); type: cell-based, mouse
Experimental: as §1, with “In vitro cell viability was determined using a Cell Counting Kit-8 (MCE) assay. Cells (5 × 10^3/well) were seeded in 96-well culture plates. After 24 h, they were incubated with various concentrations of the test compounds for 48–72 h at 37 °C in a 5% CO2 incubator. Next, 10% of the CCK-8 solution was added to each well, and the plates were incubated for an additional 4 h at 37 °C. The optical density of each well was measured at 450 nm using a multimode plate reader (Molecular Devices, San Jose, CA, USA). Cells” for “Cells”

[8] = system: HCT-116 cells; assay: Clonogenic assay, HCT-116; type: cell-based, human; conditions: 9 days
Experimental: Cells (3 × 10^2/well) were plated in a six-well plate and the culture medium was replaced every 2 days. After culturing for 7–10 d, the cells were fixed with 4% paraformaldehyde for 15 min, stained with 0.1% crystal violet for 30 min, and imaged and counted.

[9] = system: A2780 cells; assay: Apoptosis assay (Annexin V/PI), A2780; type: cell-based, human
Experimental: The cells are treated with the compounds. After 48–72 h, the cells were harvested and washed twice with cold PBS. The cells were then stained with Annexin V/propidium iodide (PI) (BD Biosciences) and examined using a NovoCyte Flow Cytometer (ACEA Biosciences). Data were analyzed using NovoExpress software (ACEA Biosciences).

[10] = system: LLC OE N/P cells co-cultured with T cells; assay: T cell-mediated tumor cell killing assay, LLC OE N/P; type: cell-based; conditions: Mus musculus, 100 nM, read-out: inhibition rate (T cell-mediated killing)
Experimental: (§2) To acquire activated T cells, human peripheral blood mononuclear cells (PBMC; LTS1077, Yanjin Biological) were cultured in CTSTM AIIM VTM SFM (A3021002; Gibco) with ImmunoCult Human CD3/CD28/CD2 T-cell activator (25 µL/mL; […] Technologies, Cat#10970) for 48 h according to the manufacturer’s protocol. The experiments were performed using mouse anti-CD3 antibody (1 µg/mL; Thermo Scientific, 16-0032-82) and anti-CD28 antibody(5 µg/mL; Thermo Scientific, 16-0281-82). Cancer cells were allowed to adhere to the plates overnight and then incubated for 48 h with activated T cells in the presence or absence of DX ([…]). Different proportions of cancer cells and activated T cells were utilized according to the purpose of each experiment. The T-cell proliferation assay was 1:3; the T-cell killing assay was 1:10; T cells and cell debris were removed by PBS washing, and the living cancer cells were then quantified by a spectrometer at OD (570 nm) followed by crystal violet staining. page 12: Fig 3: […] expression patterns. […] Data was obtained from the TCGA database. (B) T cell-mediated tumor cell killing assay. T cells were co-cultured with LLC Vector, […] CQ-85, or BMS202. […] stained by crystal violet. The relative added value of activated T cells is shown below. Data are presented as mean ± SEM; *P < 0.05, **P < 0.01, ***P < 0.001, compared with control. n.s., not significant. […]

[11] = system: LLC Vector cells co-cultured with T cells; assay: T cell-mediated tumor cell killing assay, LLC Vector; type: cell-based; conditions: Mus musculus, 100 nM, read-out: inhibition rate (T cell-mediated killing)
Experimental: as §2

[12] = system: lung cancer organoids derived from lung cancer patients; assay: Patient-derived lung cancer organoid viability; type: cell-based, human; conditions: 100 nM; 9 days
Experimental: Human lung cancer samples were obtained from Shengjing Hospital of China Medical University (IRB No. 2023PS1105K). The establishment of lung cancer patient-derived organoids was performed as described ([…] et al, [2019]). Organoids were seeded into 96-well plates and treated with the corresponding compounds for 9 days, and cell viability was determined by CellTiter Glo 3D cell viability assay (Promega, G9683).

T1 sequence (Q9NZQ7 19-238 limits assumed): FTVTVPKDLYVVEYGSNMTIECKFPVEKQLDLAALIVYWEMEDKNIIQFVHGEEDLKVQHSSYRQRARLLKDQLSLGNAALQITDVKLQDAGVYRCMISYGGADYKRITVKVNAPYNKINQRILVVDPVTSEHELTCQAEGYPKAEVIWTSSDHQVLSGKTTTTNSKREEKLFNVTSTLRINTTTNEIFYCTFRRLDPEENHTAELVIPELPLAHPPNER

`CCN(CC)CCCOc1cccc(-c2cccc3c2CCN3C(=O)c2ncc(CNC(=NC#N)Nc3ccncc3)s2)c1` [LZFPN-90] was tested, and the IC50 [1] was 0.013 µM, the “effect on NAD+ content in tumor tissues” value [2] was “reduced NAD^+ content in tumor tissues” and the “NAD+ in 20 mg tissue” value ([2]; tumor tissue) was 221.603 and 139.494 and 234.768. The “Relative inhibition (敏感性)” value [3] was 0.24, the “Relative inhibition (敏感性)” value [4] was 0.85 and the “Relative inhibition (敏感性)” value [5] was 0.42. The “Relative inhibition (敏感性)” value [6] was 0.09, the Relative viability ([7]; head LLC OE NAMPT/PD-L1 (legend: LLC OE NAMPT), LZ90 0.25 (nM), 0 = 100) was 77.2963 and 85.357 and 93.8244 and the Relative viability ([7]; head LLC OE NAMPT/PD-L1, LZ90 1) was 81.6379 and 75.0704 and 92.5933. For the same compound, the Relative viability ([7]; head LLC OE NAMPT/PD-L1, LZ90 4) was 70.2024 and 73.3725 and 88.779, the Relative viability ([7]; head LLC OE NAMPT/PD-L1, LZ90 16) was 63.5687 and 62.4896 and 67.6771 and the Relative viability ([7]; head LLC OE NAMPT/PD-L1, LZ90 64) was 57.8886 and 54.3565 and 56.8184. The Relative viability ([7]; head LLC OE NAMPT/PD-L1, LZ90 256) was 39.2756 and 40.3926 and 41.8466, the “Colony formation relative to Ctrl” value ([8]; LZ90-H (2 nM)) was 0.17 and the “Colony formation relative to Ctrl” value ([8]; LZ90-L (0.5 nM), Ctrl = 1) was 0.6. For the same compound, the “Colony formation relative to Ctrl” value ([8]; LZ90-M (1 nM)) was 0.26, the “Apoptotic cells (sum of both Annexin-positive quadrants)” value (“Apoptotic cells” for short) ([9]; LZ90 15 nM) was 5.88 and 5.86 and 5.93 and the “Apoptotic cells” value ([9]; LZ90 60 nM) was 12.2 and 12.06 and 12.87. The “Apoptotic cells” value ([9]; LZ90 240 nM) was 48.53 and 48.13 and 46.72, the inhibition at 0.1 µM [10] was roughly 80% and the inhibition at 0.1 µM [11] was roughly 40%. The “survival of lung cancer organoids” value [12] was “the survival of the organoids was decreased significantly”.
